Columns and labels:
K. oxytoca = experiment: Protective effect in experimentally-infected immunosuppressed mice (K. oxytoca); assay type: in vivo; conditions: for % Mortality, K. oxytoca: cyclophosphamide-immunodepressed CD1 mice, 25 mg/kg/d i.p. day -5 through day -1, challenge day 0
Text: (§1) Evaluation of the protective effects of ST 689 and ST 789 in experimentally-infected immunosuppressed mice.
(§2) Male CDl mice (Charles River, Italy), 6-10 weeks old, were used in experimental groups of 9-20 animals. Systemic infection in the mice was achieved by intrapcritoncal inoculation of a pathogenic species of Klebsiclla (K. oxytoca), Proteus (P. mirabilis), Serratia (S. marcescens),and Hscherichia (E. coli). Eighteen-hour broth cultures were used to prepare infectious inocula that were either sublethal (Proteus) or which corresponded to an LD30 (Serratia) and an LD10 (Escherichia, Klebsiella). The bacterial challenge, inoculated i.p. in 0.5 mL of 5% gastric mucin, was designed to cause the death of animals immunodepressed with cyclophosphamide (administered i.p. in 0.2 mL of sterile physiological solution at a dosage of 100 mg/kg) 5 days prior to infection. The compounds were administered i.p. at daily doses of 25 mg/kg from day -5 to day -1 with respect to the day of bacterial inoculation (day 0). The results are expressed as % mortality and were statistically analysed using Fisher's test (Biostatistics in Pharmacology, vol. 2, Pergamon Press).

S. marcescens = experiment: Protective effect in experimentally-infected immunosuppressed mice (S. marcescens); assay type: in vivo; conditions: for % Mortality, S. marcescens: cyclophosphamide-immunodepressed CD1 mice, 25 mg/kg/d i.p. day -5 through day -1, challenge day 0
Text: as §1, §2

rat blood granulocytes = experiment: In vitro-ex vivo chemotactic activity of rat blood granulocytes (modified Boyden chamber); conditions: for Chemotaxis (μm ± S.E.) induced: casein-induced migration; for Chemotaxis (μm ± S.E.) induced / Chemotaxis (μm ± S.E.) spontaneous: 25 mg/kg/d i.p. day -5 through day -1; for Chemotaxis (μm ± S.E.) spontaneous: spontaneous migration (Hank's medium)
Protocol: In vitro-ex vivo effects of ST 689 and ST 789 on the chemotactic activity of rat blood granulocytes.
(§3) Inbred male Fisher 344 rats (Charles River, Italy), ca. 6 months old, were used in experimental groups of 5 animals. Test animals received the compounds at dosage of 25 mg/kg daily from day -5 through day -1 relative to the day of blood sampling (day 0). The experimental procedure employed is described in Cates, L. K. et al., Modified Boyden chamber method of measuring polymorphonuclear leukocyte chemotaxis, in Leukocyte chemotaxis, Raven Press, New York, N.Y., 1978, p. 67.
Blood was sampled from decapitated animals that, after passage through heparinised gauze, was diluted 1/1 with dextran (1.5% in physiological solution) and allowed to sediment for 90 min. The granulocytes, extracted from whole blood by the usual methods; were brought to a concentration of 2×10^6 cells/mL in Hank's medium. They were then deposited on Millipore filters (3 μm) and placed in migration chambers. These chambers contained either Hank's medium for the evaluation of spontaneous migration, or casein (2 mL of a 5 mg/mL solution) for the evaluation of induced migration. After incubating the samples for 60 min at 37° C. with 5% CO2, the Millipore filters were removed, stained, and inserted between microscope slides. Microscopic observations were performed to determine the furthest distance (in μm) traversed in controls and experimental samples by 2 granulocytes within the rectangular viewing field. Granulocytic migration is expressed as the average value of 10 detailed observations on two filters prepared from each sample.

P. mirabilis = experiment: Protective effect in experimentally-infected immunosuppressed mice (P. mirabilis); assay type: in vivo; conditions: for % Mortality, P. mirabilis: cyclophosphamide-immunodepressed CD1 mice, 25 mg/kg/d i.p. day -5 through day -1, challenge day 0
Text: as §1, §2

[1] = system: plaque-forming cells (PFC) in the spleen of mice immunised with sheep red blood cells (SRBC); experiment: Production of primary antibodies (Jerne test) in the spleen of mice immunised with SRBC; assay type: in vivo; conditions: for PFC/10^6 cells (x ± S.E.) / PFC/spleen (x ± S.E.): 25 mg/kg/d i.p. from day -3 through day 3, SRBC immunisation day 0, B6D2F1 mice
Protocol: The effects of ST 689 and ST 789 on the production of primary antibodies (Jerne test) in the spleen of mice immunised with sheep red blood cells (SRBC).
Male hybrid B6 D2 F1 mice (Charles River, Italy), 7-8 weeks old, were used in experimental groups of 6 animals each. In this test, each animal was examined individually.
The compounds were administered intraperitoneally at a daily dose of 25 mg/kg from day -3 to day +3, where day 0 was the day of immunisation. The experimental procedure employed is described in Jerne, N. K. et al., Transpl. Rev., 18:30 (1974). Animals were immunised by i.p. administration of a suspension of SRBC (1×10^8 cells/mouse in 0.2 mL of PBS buffer). Five days following this treatment, the animals were killed and their spleens sterilely removed. The splenocytes were suspended at a concentration of 1×10^7 cells/ml, and 0.1 mL of this splenocyte suspension was mixed with 2 mL of warm Hank's agar medium +0.2 mL of 10% SRBC in PBS buffer and incubated in a Petri dish for 60 min at 37° C. (the samples were tested in triplicate). Complement (2 mL of guinea pig serum diluted 1:10 with Tris buffer) was added, and the Petri dishes incubated for 30 min at 37° C. In the presence of complement the cells secreted anti-SRBC antibodies, which evoked a haemolytic reaction. Such a reaction is indicative of lytic plaques in the samples contained in the Petri dishes.
The results are expressed as: […]
a) number of plaque-forming cells (PFC) in a population of 1×10^6cells;
b) number of PFC in intact spleens.
The values obtained were analysed using Dunnett's test (Biostatistics in Pharmacology, vol. 2, Pergamon Press) to ascertain the statistical significance of differences between the treated and control animal groups.

[2] = Body and spleen weight of rats in the chemotaxis test (Test 3); assay type: in vivo, rat; conditions: Fisher 344 rats; 25 mg/kg/d i.p. day -5 through day -1
Protocol: as §3

[3] = Weight survey of rats in the IL-2 test (Test 5); assay type: in vivo, rat; conditions: Fisher rats; 25 mg/kg daily i.p. day -5 through day -1
Protocol: Male Fisher rats (Charles River, Italy), 3 months old, in experimental groups of 5 animals, were treated with the substances at daily dosages of 25 mg/kg from day -5 through day -1 relative to the day the spleens were sampled (day 0). The experimental procedure employed was that reported in [1]. To suspensions of splenocytes, prepared in RPMI 1640 with 10% FCS+1×10^-5 M β-mercaptoethanol and standardised to a concentration of 1×10^7 cells/mL, were added equal volumes of ConA at a concentration of 18 μg/mL/well. After incubating for 48 h at 37° C. in the presence of 5% CO2 the samples were centrifuged and the supernates collected. Serial dilutions of the supernates were added to CTLL-2 cells (a line of T-cells requiring IL-2 for growth) standardised at 5×10^4 cells/mL. Following an overnight incubation, the samples were labelled with ^3 H--TdR (0.5 μCi/well)for 6 h, then the cells were collected on filters using a cell harvester, and counted (cpm) using a β-counter. The results are expressed in units of IL-2, comparing the counts in the samples to a standard curve prepared with purified IL-2 . . . ls1.

[4] = immunodepressed mice, 25 mg/kg/d i.p.

| Structure (SMILES) | % Mortality, K. oxytoca (K. oxytoca) | % Mortality, S. marcescens (S. marcescens) | Chemotaxis (μm ± S.E.) induced (rat blood granulocytes) | Chemotaxis (μm ± S.E.) spontaneous (rat blood granulocytes) | % Mortality, P. mirabilis (P. mirabilis) | PFC/10^6 cells (x ± S.E.) [1] | PFC/spleen (x ± S.E.) [1] | Body wt [2] | Spleen wt [2] | Body weight [3] | Spleen weight [3] | Protective activity in Klebsiella infection, in words (K. oxytoca; [4]) | Protective activity in Serratia infection, in words (S. marcescens; [4]) | Increase of rat granulocyte chemotaxis, in words (rat blood granulocytes; 25 mg/kg/d i.p.) | Protective activity in Proteus infection, in words (P. mirabilis; [4]) | Activity in terms of the number of PFC per spleen, in words ([1]; 25 mg/kg/d i.p., increase not statistically significant with respect to the control) |
| --- | --- | --- | --- | --- | --- | --- | --- | --- | --- | --- | --- | --- | --- | --- | --- | --- |
| N=C(N)NCCC[C@H](NC(=O)OCCCCCn1cnc2c(=O)[nH]cnc21)C(=O)O [ST 789, N-alfa-5-(hypoxanthin-9-yl)-pentyloxycarbonylarginine, reference compound] | 10% | 50% | 30.4 ± 2.30 μm | 10.01 ± 1.09 μm | 11,1% | 220 ± 30 PFC/10^6 cells | 35011 ± 4761 PFC/spleen | 345.6 ± 8.84 g | 610.0 ± 22.00 mg | 275.0 ± 3.76 g | 539.2 ± 12.11 mg |  |  |  |  |  |
| O=c1[nH]cnc2c1cnn2CCCCCO [ST 689, 1,5-dihydro-1-(5-hydroxypentyl)-4H-pyrazolo-[3,4-d]-pyrimidin-4-one] | 10% | 20% | 44.8 ± 1.40 μm | 14.40 ± 0.40 μm | 10% | 303 ± 47 PFC/10^6 cells | 64839 ± 15985 PFC/spleen | 358.0 ± 9.49 g | 591.4 ± 17.13 mg | 271.6 ± 4.76 g | 511.0 ± 22.35 mg | equal to that of ST 789 | better than ST 789 | more active than ST 789 | equal to that of ST 789 | more active than ST 789 |
